Laboratory results reported in publication PMC10855552, “Hydrophilic Reduction-Resistant Spin Labels of Pyrrolidine and Pyrroline Series from 3,4-Bis-hydroxymethyl-2,2,5,5-tetraethylpyrrolidine-1-oxyl” (International Journal of Molecular Sciences, 2024).
Like-named read-outs stand apart in the source and are kept apart here.

Legend:
[1] = pH dependence of EPR spectra (titration), pK by fitting; format: physicochemical; conditions: for pK, first protonation (free base to monocation): transition at high pH; for pK, first protonation (free base to monocation) / pKa, second protonation (monocation to dication): EPR titration; for pKa, second protonation (monocation to dication): transition at low pH; for pK (pH dependence of EPR spectra): amino group protonation, 5 mM phosphate-citrate-borate buffer, 25 °C
Protocol: The pH-dependences of the EPR spectra were investigated using the 0.2 mM solutions of the nitroxides in 5 mM phosphate-citrate-borate buffer on a Bruker ER-200D-SRC spectrometer in 50 µL glass capillary for 0.2 mM radical solutions. Spectrometer settings: frequency, 9.87 GHz; microwave power, 5.0 mW; modulation amplitude, 0.1 mT; time constant, 50–100 ms; and conversion time, 50.12 ms. Small portions of 0.1–1 N HCl or 0.1–1 N NaOH were added to the stirred solution of a nitroxide in buffer at 25 °C, while the pH was controlled using pH-meter. After the equilibrium was established, the samples were taken from the solution and the EPR spectra were measured. The experimental points were fitted with the Equation (1) to obtain the pKa values. (1) aN(pH)=(p1+p2×10^pK1−pH+p3×10^pK1+pK2−2×pH)/1+10^pK1−pH+10^pK1+pK2−2×pH

[2] = Partition in octanol/aqueous 5 mM phosphate-citrate-borate buffer pH 7.4, estimated from EPR amplitudes; format: physicochemical; conditions: for partition coefficient (Kp): octanol/aqueous 5 mM phosphate-citrate-borate buffer pH 7.4; for partition octanol/buffer, result in words: after shaking with buffer pH 7.4
Protocol: Partition in octanol-water mixtures for ionizable compounds may depend on pH, and the pH changes may result from addition of the compound. Therefore, phosphate-citrate-borate buffer (5 mM, pH 7.4) was used for Kp measurements to make the partition closer to physiological conditions. […] Although monoamino derivatives 11 and 13 mainly exist in protonated form at pH 7.4, they still remain lipophilic and, therefore, should permeate cells. Amino groups are known to provide higher retention/intracellular accumulation due to transmembrane potential or ion-trapping effect. This effect was exploited in design of nitroxide contrast agents for MRI and radioprotectors. Cellular accumulation of spin labels like 11 and 13 may help to increase efficacy spin labeling using CuAAC or SPAAC.
(§1) For kinetic measurements in water, stock solutions of nitroxide, ascorbic acid and glutathione in phosphate-citrate-borate buffer (5 mM, pH 7.4) were prepared, and pH was adjusted to 7.4 with NaOH or HCl. All the solutions were deoxygenated with argon, carefully and quickly mixed in a small tube to attain final concentrations (nitroxide, 0.2–04 mM; GSH, 5 mM; and ascorbate, 100–300 mM) and were placed into an EPR capillary (50 μL). The choice of acsorbate concentration is a compromise between the low reduction rate, which requires very long experiment time and deviations of the kinetics from linearity at higher ascorbate concentrations due to ionic strength effects. Since the ascorbate oxidation is slow under these conditions, the 5 mM concentration of GSH was sufficient to suppress the reverse reaction of ascorbate radical with the hydroxylamine, because the rate of the ascorbate radical formation was low. The increase in GSH concentration produced little effect on the final reduction rate constant values. The capillary was sealed on both sides and placed into the EPR resonator. The decay of amplitude of the low-field component of the EPR spectrum was followed to obtain the kinetics. The initial part of the decay curves (up to 20 min) was used for fitting. Kinetics of the decay was fitted to a monoexponential function to calculate the first-order rate constants. Then, these constants were divided by the concentration of ascorbic acid to calculate the second-order reaction constants. Partition coefficients in a water–octanol mixture were estimated from the amplitudes of the EPR spectra of a nitroxide in water after extensive shaking with different portions of added octanol and separation using centrifugation.

[3] = Kinetics of nitroxide reduction with ascorbate in the presence of glutathione, followed by EPR; format: physicochemical; conditions: ascorbate 100–300 mM, glutathione 5 mM, 5 mM phosphate-citrate-borate buffer, pH 7.4, 25 °C; values are kred × 10^4
Protocol: as §1

Solubility in water = format: physicochemical
[4] = values are kred × 10^4; cited from earlier work

| Compound | partition coefficient (Kp) [2] | pK (pH dependence of EPR spectra) [1] | kred × 10^4 (rate of reduction with ascorbate) [3] | also measured |
| --- | --- | --- | --- | --- |
| 3-((2,5-Dioxo-2,5-dihydro-1H-pyrrol-1-yl)methyl)-2,2,5,5-tetraethyl-4-((trimethylammonio)methyl)pyrrolidin-1-oxyl monoiodide [16a] |  |  |  | partition octanol/buffer, result in words [2]: not detected in octanol |
| CCC1(CC)C(CN)C(CO)C(CC)(CC)N1[O] (stereo not shown) [compound 6, 3-(Aminomethyl)-2,2,5,5-tetraethyl-4-(hydroxymethyl)pyrrolidin-1-oxyl] |  | ca. 9 |  |  |
| 3-(Azidomethyl)-2,2,5,5-tetraethyl-4-((trimethylammonio)methyl)pyrrolidin-1-oxyl monoiodide [17a] |  |  | 3.0 ± 1.0 M^−1 s^−1 | partition octanol/buffer, result in words [2]: not detected in octanol |
| 3-((2,5-Dioxo-2,5-dihydro-1H-pyrrol-1-yl)methyl)-2,2,5,5-tetraethyl-4-((trimethylammonio)methyl)-2,5-dihydro-1H-pyrrol-1-oxyl monoiodide [16b] |  |  |  | partition octanol/buffer, result in words [2]: not detected in octanol |
| CCC1(CC)C(CN)C(CN(C)C)C(CC)(CC)N1[O] (stereo not shown) [14a, 3-(Aminomethyl)-4-((dimethylamino)methyl)-2,2,5,5-tetraethylpyrrolidin-1-oxyl] |  |  | 6.4 ± 1.0 M^−1 s^−1 | pK, first protonation (free base to monocation) [1]: ca. 11; pKa, second protonation (monocation to dication) [1]: ca. 3; pKa, second protonation (monocation to dication) ([1]; listed as N,N-dimethyl-3,4-bis-(aminomethyl)-2,2,5,5-tetraethylpyrrolidine-1-oxyl): 3 |
| CCC1(CC)C(CNC(=O)OC(C)(C)C)C(COS(C)(=O)=O)C(CC)(CC)N1[O] (stereo not shown) [compound 9, 3-(((tert-Butoxycarbonyl)amino)methyl)-2,2,5,5-tetraethyl-4-(((methylsulfonyl)oxy)methyl)pyrrolidin-1-oxyl] |  |  | 3.0 ± 1.0 M^−1 s^−1 |  |
| 3-(Azidomethyl)-2,2,5,5-tetraethyl-4-((trimethylammonio)methyl)-2,5-dihydro-1H-pyrrol-1-oxyl monoiodide [17b] |  |  | 16 ± 3.0 M^−1 s^−1 | partition octanol/buffer, result in words [2]: not detected in octanol |
| CCC1(CC)C(CO)C(CN2C(=O)C=CC2=O)C(CC)(CC)N1[O] (stereo not shown) [compound 7, 3-((2,5-Dioxo-2,5-dihydro-1H-pyrrol-1-yl)methyl)-2,2,5,5-tetraethyl-4-(hydroxymethyl)pyrrolidin-1-oxyl] | 84 ± 2 |  |  | solubility in water (Solubility in water): poorly soluble in water |
| CCC1(CC)C(CN=[N+]=[N-])C(Cn2nnc(C(=O)[O-])c2C(=O)O)C(CC)(CC)N1[O].[Na+] (stereo not shown) [compound 20, 3-(Azidomethyl)-4-((4,5-dicarboxy-1H-1,2,3-triazol-1-yl)methyl)-2,2,5,5-tetraethylpyrrolidin-1-oxyl monosodium salt] |  |  | 5.9 ± 1.2 M^−1 s^−1 | partition octanol/buffer, result in words [2]: not detected in octanol |
| CCC1(CC)C(CN=[N+]=[N-])C(CNC(=O)OC(C)(C)C)C(CC)(CC)N1[O] (stereo not shown) [compound 10, 3-(Azidomethyl)-4-((tert-butoxycarbonylamino)methyl)-2,2,5,5-tetraethylpyrrolidin-1-oxyl] |  |  | 3.0 ± 1.0 M^−1 s^−1 |  |
| CCC1(CC)C(CO)C(CN=[N+]=[N-])C(CC)(CC)N1[O] (stereo not shown) [compound 5, 3-(Azidomethyl)-2,2,5,5-tetraethyl-4-(hydroxymethyl)pyrrolidin-1-oxyl] |  |  |  | solubility in water (Solubility in water): poorly soluble in water |
| CCC1(CC)CC(C(=O)O)C(CC)(CC)N1[O] (stereo not shown) [compound 21, 3-carboxy-2,2,5,5-tetraethylpyrrolidine-1-oxyl, reference compound] | 270 |  |  | kred × 10^4 (rate of reduction with ascorbate) [4]: 12.5 ± 0.3 [22] M^−1 s^−1 |
| CCC1(CC)C(CO)C(CO)C(CC)(CC)N1[O] (stereo not shown) [compound 1, 3,4-bis-hydroxymethyl-2,2,5,5-tetraethylpyrrolidine-1-oxyl] | 41 ± 2 |  |  | kred × 10^4 (rate of reduction with ascorbate) [4]: 3.3 ± 0.8 [26] M^−1 s^−1 |
| CCC1(CC)C(CO)C(CNC(=O)OC(C)(C)C)C(CC)(CC)N1[O] (stereo not shown) [compound 8, 3-(((tert-Butoxycarbonyl)amino)methyl)-2,2,5,5-tetraethyl-4-(hydroxymethyl)pyrrolidin-1-oxyl] |  |  | 6.0 ± 2.0 M^−1 s^−1 |  |
| CCC1(CC)C(CO)=C(CO)C(CC)(CC)N1[O] [compound 22, 2,2,5,5-tetraethyl-3,4-bis(hydroxymethyl)-2,5-dihydro-1H-pyrrol-1-oxyl, reference compound] | 37 ± 2 |  | 3.4 ± 0.1 M^−1 s^−1 |  |

Now from value to compound, other results behind:

| partition coefficient (Kp) [2] | pK (pH dependence of EPR spectra) [1] | Compound | kred × 10^4 (rate of reduction with ascorbate) [3] | also measured |
| --- | --- | --- | --- | --- |
| 7 ± 0.3 |  | CCC1(CC)C(CN)=C(CN(C)C)C(CC)(CC)N1[O] [14b, 3-(Aminomethyl)-4-((dimethylamino)methyl)-2,2,5,5-tetraethyl-2,5-dihydro-1H-pyrrol-1-oxyl] | 8 ± 1.0 M^−1 s^−1 | pK, first protonation (free base to monocation) [1]: ca. 11; pKa, second protonation (monocation to dication) [1]: ca. 3 |
|  | ca. 9 | CCC1(CC)C(CN(C)C)C(CN2C(=O)C=CC2=O)C(CC)(CC)N1[O] (stereo not shown) [15a, 3-((Dimethylamino)methyl)-4-((2,5-dioxo-2,5-dihydro-1H-pyrrol-1-yl)methyl)-2,2,5,5-tetraethylpyrrolidin-1-oxyl] |  |  |
| 52 ± 5 | ca. 9 | CCC1(CC)C(CN=[N+]=[N-])C(CN(C)C)C(CC)(CC)N1[O] (stereo not shown) [11a, 3-(Azidomethyl)-4-((dimethylamino)methyl)-2,2,5,5-tetraethylpyrrolidin-1-oxyl] | 4.0 ± 1.0 M^−1 s^−1 |  |
| 350 ± 35 | ca. 9 | CCC1(CC)C(CN)C(CN=[N+]=[N-])C(CC)(CC)N1[O] (stereo not shown) [13a, 3-(Aminomethyl)-4-(azidomethyl)-2,2,5,5-tetraethylpyrrolidin-1-oxyl] | 6.3 ± 0.9 M^−1 s^−1 |  |
| 45 ± 2 | ca. 9 | CCC1(CC)C(CN)=C(CN=[N+]=[N-])C(CC)(CC)N1[O] [13b, 3-(Aminomethyl)-4-(azidomethyl)-2,2,5,5-tetraethyl-2,5-dihydro-1H-pyrrol-1-oxyl] | 7.6 ± 0.3 M^−1 s^−1 |  |
|  | ca. 9 | CCC1(CC)C(CN(C)C)=C(CN2C(=O)C=CC2=O)C(CC)(CC)N1[O] [15b, 3-((Dimethylamino)methyl)-4-((2,5-dioxo-2,5-dihydro-1H-pyrrol-1-yl)methyl)-2,2,5,5-tetraethyl-2,5-dihydro-1H-pyrrol-1-oxyl] |  |  |
| 15 ± 1 | ca. 9 | CCC1(CC)C(CN=[N+]=[N-])=C(CN(C)C)C(CC)(CC)N1[O] [11b, 3-(Azidomethyl)-4-((dimethylamino)methyl)-2,2,5,5-tetraethyl-2,5-dihydro-1H-pyrrol-1-oxyl] | 15 ± 4.0 M^−1 s^−1 |  |
